Tests used:
[1] = target: T1, Sodium/glucose cotransporter 2 (Homo sapiens, UniProt P31639); experiment: Inhibition of human SGLT2 expressed in CHO cells assessed as inhibition of [14C]-alpha-methyl-D-glucopyranoside transport after 60 mins by scintillation counting; format: cell-based
T1 sequence (P31639 whole entry): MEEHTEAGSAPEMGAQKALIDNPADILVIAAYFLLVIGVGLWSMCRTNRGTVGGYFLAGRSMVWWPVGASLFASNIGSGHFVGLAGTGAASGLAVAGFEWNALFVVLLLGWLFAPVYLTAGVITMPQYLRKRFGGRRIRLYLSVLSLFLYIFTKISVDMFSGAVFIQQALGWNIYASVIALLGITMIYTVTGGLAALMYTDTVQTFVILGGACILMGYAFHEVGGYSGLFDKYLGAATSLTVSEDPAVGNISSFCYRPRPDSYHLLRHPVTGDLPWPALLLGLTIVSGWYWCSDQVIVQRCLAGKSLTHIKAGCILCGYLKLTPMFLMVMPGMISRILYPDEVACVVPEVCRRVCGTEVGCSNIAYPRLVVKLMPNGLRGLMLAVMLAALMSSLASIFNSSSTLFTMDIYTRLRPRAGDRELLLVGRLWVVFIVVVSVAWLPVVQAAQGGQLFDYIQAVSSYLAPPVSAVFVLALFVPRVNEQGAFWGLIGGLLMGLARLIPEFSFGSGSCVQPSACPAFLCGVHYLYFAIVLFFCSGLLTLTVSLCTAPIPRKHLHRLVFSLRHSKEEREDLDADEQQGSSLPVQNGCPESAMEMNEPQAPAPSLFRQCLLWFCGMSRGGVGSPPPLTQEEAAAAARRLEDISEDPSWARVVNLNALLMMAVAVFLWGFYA

[2] = target: T2, Sodium/glucose cotransporter 2 (Rattus norvegicus, UniProt P53792); experiment: Inhibition of rat SGLT2 expressed in CHO cells assessed as inhibition of [14C]-alpha-methyl-D-glucopyranoside transport after 60 mins by scintillation counting; format: cell-based
T2 sequence (P53792 whole entry): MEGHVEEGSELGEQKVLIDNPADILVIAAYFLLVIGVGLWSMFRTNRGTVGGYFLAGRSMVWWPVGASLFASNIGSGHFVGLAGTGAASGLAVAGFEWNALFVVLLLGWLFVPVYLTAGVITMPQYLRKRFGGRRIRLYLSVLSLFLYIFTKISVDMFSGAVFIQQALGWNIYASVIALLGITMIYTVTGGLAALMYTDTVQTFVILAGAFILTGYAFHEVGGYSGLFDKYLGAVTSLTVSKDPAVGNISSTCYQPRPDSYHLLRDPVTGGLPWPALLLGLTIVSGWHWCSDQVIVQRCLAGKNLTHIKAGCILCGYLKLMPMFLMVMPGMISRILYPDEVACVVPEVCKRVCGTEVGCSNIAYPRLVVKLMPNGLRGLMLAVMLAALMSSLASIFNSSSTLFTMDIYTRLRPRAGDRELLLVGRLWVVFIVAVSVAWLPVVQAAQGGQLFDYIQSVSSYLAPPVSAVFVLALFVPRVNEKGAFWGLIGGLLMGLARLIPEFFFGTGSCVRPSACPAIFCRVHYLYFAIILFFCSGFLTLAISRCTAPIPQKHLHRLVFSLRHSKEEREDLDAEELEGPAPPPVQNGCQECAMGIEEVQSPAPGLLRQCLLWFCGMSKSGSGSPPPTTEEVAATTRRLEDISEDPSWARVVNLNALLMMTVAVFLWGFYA

`Cn1c(CN2C(=O)CSc3ccc(C(F)(F)F)cc32)nnc1SCc1ccc(Cl)cc1` was tested, and the IC50 [1] was 1.4 µM and the IC50 [2] was 0.4 µM.

From ChEMBL document CHEMBL1759842, “Discovery of non-glucoside SGLT2 inhibitors” (Bioorg Med Chem Lett, 2011)
